Legend:
U87MG tumour cells = assay: Test of in vitro proliferation of U87MG tumour cells; type: cell-based; conditions: Homo sapiens, U-87 MG, 72 h, U87MG cells, 72 hours; read-out: U87 Cell Proliferation IC50
Description: Model 4: Test of in vitro Proliferation of U87MG Tumour Cells.
The cell growth is determined with the reagent CellTiter 96 AQueous One Solution Cell Proliferation Assay from Promega (Cat. No. G3581).

Akt-pS473 in U87MG cells = conditions: Homo sapiens, U-87 MG, read-out: U87 Akt-pS473 % Inhibition or IC50, nM (IC50), U87MG cells
Description: Model 3: Cellular Test of Phosphorylation of the Epitope S473 of the Akt Protein on the U87MG Line Via an ELISA Test
An electrochemiluminescence signal is generated by a ruthenium-labelled anti-rabbit antibody.
After culturing for 16-20 hours (the cells are at 100% of confluence) at 37° C. under 5% CO2, 1 μl of the chemical compounds in 100% DMSO (1% DMSO final concentration on the cells) is added. The cells are incubated with the compounds for 3 hours at 37° C. under 5% CO2.
The free sites are blocked with 150 μl/well of a buffer of 50 mM Tris pH 7.5, 0.15 M NaCl, 0.02% Tween 20, 3% BSA with stirring at 450 rpm for 1 hour at room temperature, followed by a step of washing with 3×300 μl of a buffer of 50 mM Tris pH 7.5, 0.15 M NaCl, 0.02% Tween 20.
15 μl of cell lysate are mixed with 15 μl of a 50 mM buffer of Tris pH 7.5, 0.15 M NaCl, 0.02% Tween 20, 1% BSA in a precoated ELISA plate (see above), and incubated for 1 hour at room temperature with stirring, followed by a step of washing with 3×300 μl of a buffer of 50 mM Tris pH 7.5, 0.15 M NaCl, 0.02% Tween 20. The pS473 epitope of Akt is detected with a rabbit polyclonal antibody (Cell Signaling, SC9271), diluted 100-fold in 50 mM Tris pH 7.5, 0.15 M NaCl, 0.02% Tween 20, 1% BSA, 25 μl/well (incubation for 1 hour at room temperature with stirring at 450 rpm).
After washing (see above), revelation is performed with a ruthenium-labelled anti-rabbit antibody (MSD R32AB1), diluted 3000-fold in a 50 mM buffer of Tris pH 7.5, 0.15 M NaCl, 0.02% Tween 20, 1% BSA, 25 μl/well, followed by incubation for 1 hour at room temperature with stirring at 450 rpm, and the plates are covered with aluminium.
After a further washing step, the plates are emptied and 150 μl of MSD Read Buffer T diluted fourfold with water are added. The electrochemiluminescence is measured on the MSD Sector Imager 6000.

PI3Kα (p110α/p85α) = PI3Kα (p110α/p85α) (Homo sapiens (Human), UniProt P42336); assay: PI3Kα enzymatic test by measuring the consumption of ATP; type: biochemical
In short: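 ATP consumption read out by KinaseGlo luminescence after a 90 min reaction of 1.7 μg/ml PI3Kα (p110α/p85α) with 2 μM ATP and 50 μM PIP2, buffered at pH 7.5 (Tris, 10 mM MgCl2, 1 mM EGTA, 0.03% Chaps, 1 mM DTT). Threefold dilution series over ≥10 000-fold range yield IC50.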

[1] = target: mTOR (human recombinant aa mTOR 1360-2549) (Homo sapiens (Human), UniProt P42345); assay: mTOR enzymatic test by TR-FRET (phosphorylation of GFP-4EBP1); type: biochemical
In short: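 After a 30 min room-temperature kinase reaction, EDTA (10 mM final) and Tb-labelled phospho-Thr46 antibody (2 nM final) were added and incubated 60 min. Energy transfer from Tb to phosphorylated GFP-4EBP1 was read at 340 nm excitation, emissions 490/520 nm. Values derive from the 520/490 fluorescence ratio.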

Chain of mTOR (human recombinant aa mTOR 1360-2549) (P42345 1360-2549): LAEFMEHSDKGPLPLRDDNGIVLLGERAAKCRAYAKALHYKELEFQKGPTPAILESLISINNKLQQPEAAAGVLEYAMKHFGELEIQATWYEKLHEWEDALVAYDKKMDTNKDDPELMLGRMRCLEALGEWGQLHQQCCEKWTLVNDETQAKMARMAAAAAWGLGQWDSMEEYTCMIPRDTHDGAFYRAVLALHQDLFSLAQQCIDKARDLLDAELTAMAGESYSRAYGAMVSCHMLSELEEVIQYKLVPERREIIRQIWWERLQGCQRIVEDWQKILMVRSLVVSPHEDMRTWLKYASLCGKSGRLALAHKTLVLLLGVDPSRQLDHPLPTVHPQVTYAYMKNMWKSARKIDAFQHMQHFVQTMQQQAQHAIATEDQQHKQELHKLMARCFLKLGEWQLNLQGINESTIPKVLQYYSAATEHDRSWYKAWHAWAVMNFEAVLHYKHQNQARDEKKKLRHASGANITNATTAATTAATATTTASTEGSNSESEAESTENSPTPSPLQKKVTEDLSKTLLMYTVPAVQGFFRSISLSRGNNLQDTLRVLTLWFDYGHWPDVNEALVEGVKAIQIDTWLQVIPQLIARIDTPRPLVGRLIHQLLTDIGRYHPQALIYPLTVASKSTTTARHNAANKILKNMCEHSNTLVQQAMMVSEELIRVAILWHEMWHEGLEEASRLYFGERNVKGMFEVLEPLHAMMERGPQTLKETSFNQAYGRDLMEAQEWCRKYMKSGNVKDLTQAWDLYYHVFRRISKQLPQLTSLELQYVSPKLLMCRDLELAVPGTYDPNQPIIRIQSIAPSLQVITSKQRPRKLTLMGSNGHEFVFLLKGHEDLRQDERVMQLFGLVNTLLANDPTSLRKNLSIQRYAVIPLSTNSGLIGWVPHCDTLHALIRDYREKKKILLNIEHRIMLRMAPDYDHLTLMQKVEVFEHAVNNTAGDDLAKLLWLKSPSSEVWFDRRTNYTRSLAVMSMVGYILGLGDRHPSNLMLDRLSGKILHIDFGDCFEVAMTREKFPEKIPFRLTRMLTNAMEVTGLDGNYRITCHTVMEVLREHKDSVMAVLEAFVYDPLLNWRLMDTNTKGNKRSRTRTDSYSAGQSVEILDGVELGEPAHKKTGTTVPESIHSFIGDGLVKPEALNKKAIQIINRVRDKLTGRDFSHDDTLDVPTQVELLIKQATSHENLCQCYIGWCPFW
Chain of PI3Kα (p110α/p85α) (P42336 whole entry): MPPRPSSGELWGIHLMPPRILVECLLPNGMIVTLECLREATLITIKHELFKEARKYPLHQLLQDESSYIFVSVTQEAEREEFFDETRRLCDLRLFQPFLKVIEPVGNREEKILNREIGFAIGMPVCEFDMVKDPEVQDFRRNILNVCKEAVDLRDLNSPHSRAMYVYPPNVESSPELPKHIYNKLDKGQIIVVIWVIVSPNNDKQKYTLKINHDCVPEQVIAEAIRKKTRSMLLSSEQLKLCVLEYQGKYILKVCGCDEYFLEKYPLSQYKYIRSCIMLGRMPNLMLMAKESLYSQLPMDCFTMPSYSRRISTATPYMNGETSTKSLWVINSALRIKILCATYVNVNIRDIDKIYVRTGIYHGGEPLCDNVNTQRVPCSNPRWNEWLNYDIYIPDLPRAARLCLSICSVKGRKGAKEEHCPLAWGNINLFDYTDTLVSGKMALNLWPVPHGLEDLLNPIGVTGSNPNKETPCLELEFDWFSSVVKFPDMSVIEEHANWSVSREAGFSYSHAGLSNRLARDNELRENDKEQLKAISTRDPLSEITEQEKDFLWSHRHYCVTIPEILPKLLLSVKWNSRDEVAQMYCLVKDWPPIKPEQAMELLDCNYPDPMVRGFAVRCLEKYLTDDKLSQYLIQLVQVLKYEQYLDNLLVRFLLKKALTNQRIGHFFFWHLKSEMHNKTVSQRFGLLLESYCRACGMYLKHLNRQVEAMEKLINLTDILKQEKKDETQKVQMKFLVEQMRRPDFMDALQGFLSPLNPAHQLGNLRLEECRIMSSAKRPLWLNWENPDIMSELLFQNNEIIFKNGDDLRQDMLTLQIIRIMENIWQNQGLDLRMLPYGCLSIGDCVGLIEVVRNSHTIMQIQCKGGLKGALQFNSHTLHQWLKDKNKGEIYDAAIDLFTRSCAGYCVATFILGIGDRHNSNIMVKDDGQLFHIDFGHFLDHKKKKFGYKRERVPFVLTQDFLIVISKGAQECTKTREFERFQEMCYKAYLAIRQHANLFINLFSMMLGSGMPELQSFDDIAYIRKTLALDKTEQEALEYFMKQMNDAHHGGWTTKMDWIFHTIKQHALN
Chain of PI3Kα (p110α/p85α) (P27986 whole entry partner): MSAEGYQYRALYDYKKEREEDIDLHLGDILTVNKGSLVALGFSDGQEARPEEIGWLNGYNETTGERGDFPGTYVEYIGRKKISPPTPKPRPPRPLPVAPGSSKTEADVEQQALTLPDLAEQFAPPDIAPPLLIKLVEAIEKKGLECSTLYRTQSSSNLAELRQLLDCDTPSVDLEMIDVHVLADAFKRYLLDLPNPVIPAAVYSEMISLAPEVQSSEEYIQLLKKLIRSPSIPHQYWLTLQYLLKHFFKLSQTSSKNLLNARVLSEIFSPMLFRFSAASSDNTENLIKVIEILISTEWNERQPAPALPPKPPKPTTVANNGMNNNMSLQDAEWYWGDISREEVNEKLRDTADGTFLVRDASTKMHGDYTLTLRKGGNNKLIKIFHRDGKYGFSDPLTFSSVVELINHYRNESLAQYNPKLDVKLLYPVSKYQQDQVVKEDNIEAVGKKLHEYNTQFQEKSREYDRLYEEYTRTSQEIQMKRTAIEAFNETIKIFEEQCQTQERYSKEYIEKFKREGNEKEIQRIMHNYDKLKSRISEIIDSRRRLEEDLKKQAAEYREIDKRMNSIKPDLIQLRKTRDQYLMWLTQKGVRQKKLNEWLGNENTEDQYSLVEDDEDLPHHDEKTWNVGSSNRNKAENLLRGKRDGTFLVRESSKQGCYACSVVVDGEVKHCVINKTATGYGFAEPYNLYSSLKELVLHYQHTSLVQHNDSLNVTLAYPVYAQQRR

Compound | IC50 (U87MG tumour cells) [µM] | IC50 (Akt-pS473 in U87MG cells) [nM] | PI3Ka IC50 (PI3Kα (p110α/p85α)) [µM] | IC50 [1] [µM]
CCN1CC(C)(C)Oc2nc(N3CCOC[C@@H]3C)nc(-c3ccc(NC(=O)Nc4ccc(N5CCOCC5(C)C)nc4)c(F)c3)c2C1=O [Example 256, 1-[6-(3,3-Dimethylmorpholin-4-yl)pyridin-3-yl]-3-{4-[6-ethyl-8,8-dimethyl-2-((S)-3-methylmorpholin-4-yl)-5-oxo-5,6,7,8-tetrahydro-9-oxa-1,3,6-triazabenzocyclohepten-4-yl]-2-fluorophenyl}urea] | 0.083 | 42 | 0.199 | 0.196
CCN1CC(C)(C)Oc2nc(N3C4CCC3COC4)nc(-c3ccc(NC(=O)Nc4ccc(N5CCOCC5(C)C)nc4)c(F)c3)c2C1=O [Example 257, 1-[6-(3,3-Dimethylmorpholin-4-yl)pyridin-3-yl]-3-{4-[6-ethyl-8,8-dimethyl-2-(3-oxa-8-azabicyclo[3.2.1]oct-8-yl)-5-oxo-5,6,7,8-tetrahydro-9-oxa-1,3,6-triazabenzocyclohepten-4-yl]-2-fluorophenyl}urea] | 0.063 | 46 | >10 | 0.142
CCN1CC(C)(C)Oc2nc(N3CCOC[C@@H]3C)nc(-c3ccc(NC(=O)Nc4ccc(N5CC6CCC(C5)O6)nc4)c(F)c3)c2C1=O [Example 258, 1-{4-[6-Ethyl-8,8-dimethyl-2-((S)-3-methylmorpholin-4-yl)-5-oxo-5,6,7,8-tetrahydro-9-oxa-1,3,6-triazabenzocyclohepten-4-yl]-2-fluorophenyl}-3-[6-(8-oxa-3-azabicyclo[3.2.1]oct-3-yl)pyridin-3-yl]urea] | 0.125 | 20 | 2.94 | 0.053
CCN1CC(C)(C)Oc2nc(N3C4CCC3COC4)nc(-c3ccc(NC(=O)Nc4ccc(N5CC6CCC(C5)O6)nc4)c(F)c3)c2C1=O [Example 259, 1-{4-[6-Ethyl-8,8-dimethyl-2-(3-oxa-8-azabicyclo[3.2.1]oct-8-yl)-5-oxo-5,6,7,8-tetrahydro-9-oxa-1,3,6-triazabenzocyclohepten-4-yl]-2-fluorophenyl}-3-[6-(8-oxa-3-azabicyclo[3.2.1]oct-3-yl)pyridin-3-yl]urea] | 0.087 | 16 | >10 | 0.087
CCN1CC(C)(C)Oc2nc(N3CC4CCC(C3)O4)nc(-c3ccc(NC(=O)Nc4ccnc(N5CC6CCC(C5)O6)c4)c(F)c3)c2C1=O [Example 260, 1-{4-[6-Ethyl-8,8-dimethyl-2-(8-oxa-3-azabicyclo[3.2.1]oct-3-yl)-5-oxo-5,6,7,8-tetrahydro-9-oxa-1,3,6-triazabenzocyclohepten-4-yl]-2-fluorophenyl}-3-[2-(8-oxa-3-azabicyclo[3.2.1]oct-3-yl)pyridin-4-yl]urea] | 0.095 | 24 | >10 | 0.174
